Test [1] in a line: Cytotoxicity against human NALM6 cells after 72 hrs by Cell-Titer Glo assay. It counts as functional, cell-based. Particulars: NALM-6, 72 h.
The test system of the next test is Raji. In words: Cytotoxicity against human Raji cells after 72 hrs by Cell-Titer Glo assay. It counts as functional, cell-based.
The subject of another test is HEK293. The test is described as follows: Cytotoxicity against HEK293 cells after 72 hrs by Cell-Titer Glo assay. Format: cell-based. To be noted: Homo sapiens, HEK293, 72 h.
The next test has as its system HepG2. The test is described as follows: Cytotoxicity against human HepG2 cells after 72 hrs by Cell-Titer Glo assay. Format: functional, cell-based. Particulars: HepG2, 72 h.
In another test the test system is BJ. The test is described as follows: Cytotoxicity against human BJ cells after 72 hrs by Cell-Titer Glo assay. Format: cell-based.
Test [2] is described as follows: Cytotoxicity against human SEM cells after 72 hrs by Cell-Titer Glo assay. It counts as functional, cell-based.
In a further test the test system is Jurkat. In words: Cytotoxicity against human Jurkat cells after 72 hrs by Cell-Titer Glo assay. It counts as functional, cell-based.

The record followed here is ChEMBL document CHEMBL3779792, “Anti-proliferative evaluation of monoterpene derivatives against leukemia” (Eur J Med Chem, 2016).

By EC50 is commonly meant the concentration that produces a half-maximal response. High values mean a need for much substance, low ones an effect from little substance.

For `C=C[C@@](C)(/C=C/c1ccc(O)cc1)CCCO`, the concentration for a half-maximal effect (EC50) is over 43.5 µM in test [1]; over 26 µM in the test with Raji; over 36.6 µM in the test with HEK293; over 52.1 µM in the test on HepG2; over 36.6 µM in the test on BJ; over 36.6 µM in test [2]. The concentration for a half-maximal effect (EC50) in the test with Jurkat was over 49 µM.
As to `CC(C)=CCC[C@](C)(/C=C/c1ccc(O)cc1)/C=C/c1cccc(Cl)c1`, the 50% effective concentration (EC50) is over 43.5 µM in test [1]; over 26 µM with Raji; over 36.6 µM in the test on HEK293; over 52.1 µM with HepG2; over 36.6 µM in the test with BJ; over 36.6 µM in test [2].
Take `C=C[C@@](C)(/C=C/c1ccc(Nc2ccc(F)c(F)c2)cc1)CCC=C(C)C`: the concentration giving a half-maximal response (EC50) in test [1] was over 43.5 µM; in the test with Raji, over 26 µM; in the test with HEK293, over 36.6 µM; in the test with HepG2 it was over 52.1 µM; in the test with BJ, over 36.6 µM; in test [2] it was over 36.6 µM.
On to `C=C[C@@](C)(/C=C/c1ccc(Nc2cc(F)c(F)cc2F)cc1)CCC=C(C)C`, for which the EC50 in test [1] was over 43.5 µM; in the test on Raji, over 26 µM; with HEK293, over 36.6 µM; with HepG2, over 52.1 µM; in the test on BJ, over 36.6 µM; in test [2], over 36.6 µM.
Turning to `C=C[C@@](C)(/C=C/c1ccc(Nc2ccc(Cl)c(Cl)c2)cc1)CCC=C(C)C`, the EC50 was over 43.5 µM in test [1]; over 26 µM in the test on Raji; over 36.6 µM in the test with HEK293; over 52.1 µM in the test on HepG2; over 36.6 µM with BJ; over 36.6 µM in test [2].
On to `C=C[C@@](C)(/C=C/c1ccc(Nc2ccc(C(F)(F)F)cc2)cc1)CCC=C(C)C`, for which the concentration giving a half-maximal response (EC50) in test [1] was over 43.5 µM; in the test with Raji it was over 26 µM; with HEK293, over 36.6 µM; in the test on HepG2 it was over 52.1 µM; with BJ it was over 36.6 µM; in test [2] it was over 36.6 µM.
As to `C=C[C@@](C)(/C=C/c1ccc(Nc2ccc3c(c2)OCO3)cc1)CCC=C(C)C`, the 50% effective concentration (EC50) was over 43.5 µM in test [1]; over 26 µM with Raji; over 36.6 µM in the test with HEK293; over 52.1 µM in the test with HepG2; over 36.6 µM in the test with BJ; over 36.6 µM in test [2].
As to `C=C[C@@](C)(/C=C/c1ccc(Nc2ccccc2)cc1)CCC=C(C)C`, the EC50 in test [1] was over 43.5 µM; with Raji it was over 26 µM; in the test on HEK293 it was over 36.6 µM; in the test with HepG2, over 52.1 µM; in the test with BJ, over 36.6 µM; in test [2], over 36.6 µM.
`C=C[C@@](C)(/C=C/c1ccc(Nc2ccc(Cl)c(F)c2)cc1)CCC=C(C)C`: the EC50 was over 43.5 µM in test [1]; over 26 µM in the test with Raji; over 36.6 µM in the test with HEK293; over 52.1 µM with HepG2; over 36.6 µM in the test on BJ; over 36.6 µM in test [2].
In the case of `C=C[C@@](C)(/C=C/c1ccc(-c2ccc(Cl)cc2)cc1)CCC=C(C)C`, the 50% effective concentration (EC50) in test [1] is over 43.5 µM; in the test on Raji, over 26 µM; in the test on HEK293, over 36.6 µM; in the test with HepG2 it was over 52.1 µM; in the test on BJ, over 36.6 µM; in test [2], over 36.6 µM.
Turning to `C=C[C@@](C)(/C=C/c1ccc(Nc2cc(F)c(F)c(F)c2)cc1)CCC=C(C)C`, the EC50 in test [1] was over 43.5 µM; with Raji, over 26 µM; in the test on HEK293 it was over 36.6 µM; in the test with HepG2 it was over 52.1 µM; in the test on BJ, over 36.6 µM; in test [2] it was over 36.6 µM.
Turning to `C=C[C@@](C)(/C=C/c1ccc(-c2ccc(Cl)c(Cl)c2)cc1)CCC=C(C)C`, the EC50 in test [1] was over 43.5 µM; in the test with Raji, over 26 µM; with HEK293, over 36.6 µM; in the test on HepG2, over 52.1 µM; in the test with BJ, over 36.6 µM; in test [2], over 36.6 µM.
For `CC(C)=CCC[C@@](C)(/C=C/c1ccc(C)cc1)/C=C/c1ccc(O)cc1`, the EC50 was over 43.5 µM in test [1]; over 26 µM in the test with Raji; over 36.6 µM in the test on HEK293; over 52.1 µM in the test on HepG2; over 36.6 µM in the test with BJ; over 36.6 µM in test [2].
As to `C=C[C@@](C)(/C=C/c1ccc(Nc2cc(F)cc(F)c2)cc1)CCC=C(C)C`, the EC50 is over 43.5 µM in test [1]; over 26 µM in the test on Raji; over 36.6 µM in the test on HEK293; over 52.1 µM in the test on HepG2; over 36.6 µM with BJ; over 36.6 µM in test [2].
Take `CC(C)=CCC[C@](C)(/C=C/c1ccc(O)cc1)/C=C/c1ccc(C#N)cc1`: the EC50 in test [1] is over 43.5 µM; with Raji, over 26 µM; with HEK293, over 36.6 µM; with HepG2, over 52.1 µM; in the test on BJ it was over 36.6 µM; in test [2], over 36.6 µM.
As to `C=C[C@@](C)(/C=C/c1ccc(Nc2ccc(OC)cc2)cc1)CCC=C(C)C`, the EC50 in test [1] was over 43.5 µM; in the test on Raji, over 26 µM; in the test on HEK293 it was over 36.6 µM; in the test on HepG2 it was over 52.1 µM; in the test on BJ, over 36.6 µM; in test [2], over 36.6 µM.
Turning to `C=C[C@@](C)(/C=C/c1ccc(-c2cccc(F)c2)cc1)CCC=C(C)C`, the EC50 was over 43.5 µM in test [1]; over 26 µM with Raji; over 36.6 µM in the test on HEK293; over 52.1 µM in the test with HepG2; over 36.6 µM in the test with BJ; over 36.6 µM in test [2].
For `C=C[C@@](C)(/C=C/c1ccc(Nc2c(F)cc(F)cc2F)cc1)CCC=C(C)C`, the EC50 in test [1] is over 43.5 µM; in the test on Raji, over 26 µM; in the test with HEK293, over 36.6 µM; in the test with HepG2, over 52.1 µM; in the test on BJ, over 36.6 µM; in test [2], over 36.6 µM.
Turning to `C=C[C@@](C)(/C=C/c1ccc(Nc2cc(C(F)(F)F)cc(C(F)(F)F)c2)cc1)CCC=C(C)C`, the concentration giving a half-maximal response (EC50) in test [1] was over 43.5 µM; in the test with Raji it was over 26 µM; in the test with HEK293 it was over 36.6 µM; with HepG2, over 52.1 µM; in the test on BJ it was over 36.6 µM; in test [2], over 36.6 µM.
Regarding `C=C[C@@](C)(/C=C/c1ccc(-c2ccc(F)cc2)cc1)CCC=C(C)C`, the 50% effective concentration (EC50) in test [1] is over 43.5 µM; in the test on Raji it was over 26 µM; in the test with HEK293 it was over 36.6 µM; in the test with HepG2 it was over 52.1 µM; in the test with BJ, over 36.6 µM; in test [2], over 36.6 µM.
As for `C=C[C@@](C)(/C=C/c1ccc(Nc2cccc(C(F)(F)F)c2)cc1)CCC=C(C)C`, the EC50 in test [1] was over 43.5 µM; in the test on Raji it was over 26 µM; with HEK293, over 36.6 µM; in the test on HepG2, over 52.1 µM; in the test with BJ, over 36.6 µM; in test [2], over 36.6 µM.
For the molecule `CC(C)=CCC[C@](C)(/C=C/c1ccc(O)cc1)/C=C/c1cccc(F)c1`, the concentration for a half-maximal effect (EC50) was over 43.5 µM in test [1]; over 26 µM in the test on Raji; over 36.6 µM in the test with HEK293; over 52.1 µM in the test on HepG2; over 36.6 µM in the test with BJ; over 36.6 µM in test [2].
With `C=C[C@@](C)(/C=C/c1ccc(Nc2ccc(OC(F)(F)F)cc2)cc1)CCC=C(C)C`, the half-maximal effective concentration (EC50) in test [1] is over 43.5 µM; in the test with Raji, over 26 µM; in the test on HEK293, over 36.6 µM; in the test on HepG2 it was over 52.1 µM; in the test with BJ it was over 36.6 µM; in test [2] it was over 36.6 µM.
As for `C=C[C@@](C)(/C=C/c1ccc(Nc2cccc(OC(F)(F)F)c2)cc1)CCC=C(C)C`, the EC50 in test [1] is over 43.5 µM; with Raji, over 26 µM; with HEK293 it was over 36.6 µM; in the test on HepG2, over 52.1 µM; in the test on BJ, over 36.6 µM; in test [2], over 36.6 µM.
For `C=C[C@@](C)(/C=C/c1ccc(-c2ccccc2)cc1)CCC=C(C)C`, the concentration giving a half-maximal response (EC50) is over 43.5 µM in test [1]; over 26 µM in the test with Raji; over 36.6 µM in the test with HEK293; over 52.1 µM in the test with HepG2; over 36.6 µM in the test with BJ; over 36.6 µM in test [2].
`C=C[C@@](C)(/C=C/c1ccc(Nc2ccc(F)cc2)cc1)CCC=C(C)C`: the EC50 was over 43.5 µM in test [1]; over 26 µM in the test on Raji; over 36.6 µM in the test on HEK293; over 52.1 µM in the test with HepG2; over 36.6 µM in the test on BJ; over 36.6 µM in test [2].
As for `C=C[C@@](C)(/C=C/c1ccc(Nc2ccc(OC)c(F)c2)cc1)CCC=C(C)C`, the EC50 in test [1] was over 43.5 µM; with Raji, over 26 µM; with HEK293 it was over 36.6 µM; with HepG2, over 52.1 µM; with BJ, over 36.6 µM; in test [2], over 36.6 µM.
For the molecule `C=C[C@@](C)(/C=C/c1ccc(Nc2ccc(OC)c(OC)c2)cc1)CCC=C(C)C`, the half-maximal effective concentration (EC50) in test [1] was over 43.5 µM; with Raji, over 26 µM; in the test with HEK293, over 36.6 µM; with HepG2, over 52.1 µM; in the test on BJ, over 36.6 µM; in test [2] it was over 36.6 µM.
For `C=C[C@@](C)(/C=C/c1ccc(-c2c(F)c(F)c(F)c(F)c2F)cc1)CCC=C(C)C`, the concentration for a half-maximal effect (EC50) in test [1] is over 43.5 µM; in the test with Raji it was over 26 µM; with HEK293, over 36.6 µM; with HepG2 it was over 52.1 µM; with BJ, over 36.6 µM; in test [2], over 36.6 µM.
Take `C=C[C@@](C)(/C=C/c1ccc(Nc2ccc(Cl)cc2)cc1)CCC=C(C)C`: the EC50 in test [1] is over 43.5 µM; in the test on Raji it was over 26 µM; in the test with HEK293 it was over 36.6 µM; in the test with HepG2, over 52.1 µM; in the test with BJ it was over 36.6 µM; in test [2] it was over 36.6 µM.
Turning to `CC(C)=CCC[C@@](C)(/C=C/c1ccccc1)/C=C/c1ccc(O)cc1`, the half-maximal effective concentration (EC50) was over 43.5 µM in test [1]; over 26 µM in the test with Raji; over 36.6 µM in the test with HEK293; over 52.1 µM in the test with HepG2; over 36.6 µM with BJ; over 36.6 µM in test [2].
Turning to `C=C[C@@](C)(/C=C/c1ccc(-c2cccc(Br)c2)cc1)CCC=C(C)C`, the 50% effective concentration (EC50) was over 43.5 µM in test [1]; over 26 µM in the test with Raji; over 36.6 µM in the test with HEK293; over 52.1 µM in the test on HepG2; over 36.6 µM in the test with BJ; over 36.6 µM in test [2].
